Laboratory results: PMC4491105, “Synthesis and anticancer activity of thiosubstituted purines” (Medicinal Chemistry Research, 2015)
Converted amounts (≈) assume the structure as drawn. “Also recorded” adds a separate entry of the source.

Assays:
[1] = system: SNB-19 (human glioblastoma); experiment: Antiproliferative WST-1 assay, glioblastoma SNB-19; type: cell-based; settings: for EC50: Homo sapiens, SNB-19, 72 h, read-out: Antiproliferative activity EC50 SBN-19; for EC50 / Antiproliferative activity EC50 SBN-19 / Activity against SNB-19 cell line (in words): SNB-19 cells; for EC50 / Antiproliferative activity EC50 SBN-19: 72 h exposure, WST-1; for Activity against SNB-19 cell line (in words): compared with azathioprine
Description: (§1) Compounds were evaluated for their anticancer activity using […] cultured cell lines: SNB-19 (human glioblastoma, DSMZ—German Collection of Microorganisms and Cell Cultures, Braunschweig, Germany), C-32 (human amelanotic melanoma, ATCC—American Type Culture Collection, Manassas, VA, USA), T47D (human ductal breast epithelial tumor cell line, ATCC, Manassas, VA, USA), and HFF-1 (human fibroblast cell line, ATCC, Manassas, VA, USA). The cultured cells were kept at 37 °C and 5 % CO2. The cells were seeded (1 × 10^4 cells/well/100 μl DMEM supplemented with 10 % FCS and streptomycin and penicillin) using 96-well plates (Corning).
(§2) In recent years, tetrazolium salts have been described which can be used for the measurement of cell proliferation and viability. The tetrazolium salts are cleaved to formazan by cellular enzymes. An expansion in the number of viable cells results in an increase in the overall activity of mitochondrial dehydrogenases in the sample. This augmentation in enzyme activity leads to an increase in the amount of formazan dye formed, which directly correlates with the number of metabolically active cells in the culture. The formazan dye produced by metabolically active cells is quantified by a scanning ELISA reader by measuring the absorbance of the dye solution at appropriate wavelengths (λ = 420–480 nm with a reference wavelength λ = 600 nm).
(§3) Antiproliferative effect of compounds was determined using the Cell Proliferation Reagent WST-1 assay (Roche Diagnostics, Mannheim, Germany). After exposure to tested compounds (at concentrations between 0 and 100 μg/ml) for 72 h, cells were incubated with WST-1 (10 μl) for 1 h, and the absorbance of the samples against a background control was read at 450 nm using with a reference wavelength λ = 600 nm a microplate reader. Results are expressed as means of at least two independent experiments performed in triplicate.

[2] = system: C-32 (human amelanotic melanoma); experiment: Antiproliferative WST-1 assay, melanoma C-32; type: cell-based; settings: C-32 cells; for EC50: Homo sapiens, C32
Description: as §1, §2, §3

[3] = system: T47D (human ductal breast epithelial tumor cell line); experiment: Antiproliferative WST-1 assay, breast tumor T47D; type: cell-based; settings: T47D cells; for EC50: Homo sapiens, read-out: Antiproliferative activity EC50 T47-D
Description: as §1, §2, §3

[4] = system: HFF-1 (human fibroblast cell line); experiment: Antiproliferative WST-1 assay, normal fibroblasts HFF-1 (toxicity control); type: cell-based
Description: as §1, §2, §3

[5] = normal human fibroblasts HFF-1, 72 h exposure, WST-1

Structure (SMILES)	EC50 [1] [µg/mL]	EC50 ([2]; 72 h exposure, WST-1) [µg/mL]	EC50 ([3]; 72 h exposure, WST-1) [µg/mL]	EC50 [4, 5] [µg/mL]	further results
Cn1cnc([N+](=O)[O-])c1Sc1ncnc2nc[nH]c12 [Azathioprine, reference compound]	37.2 (≈ 134 µM)	35.6 (≈ 128 µM)	39 (≈ 141 µM)	55.9 (≈ 202 µM)	
Cn1cnc([N+](=O)[O-])c1Sc1nc(Sc2c([N+](=O)[O-])ncn2C)c2c(ncn2C)n1 [Compound 3d, 7-methyl-2,6-di(1-methyl-4-nitroimidazol-5-ylthio)purine]	> 50	> 50	> 50	> 50	Anticancer activity against tested cell lines (in words) ([1]; SNB-19, C-32 and T47D cell lines overall): inactive
N.N.[Cl][Pt][Cl] [Cisplatin, reference compound]					Antiproliferative activity EC50 SBN-19 [1]: 4.45 µg/mL; Antiproliferative activity EC50 C-32 ([2]; 72 h exposure, WST-1): 6.28 µg/mL; Antiproliferative activity EC50 T47-D ([3]; 72 h exposure, WST-1): 8.79 µg/mL; Antiproliferative activity EC50 HFF-1 [4, 5]: 30.00 µg/mL
CSc1nc(Sc2c([N+](=O)[O-])ncn2C)c2c(ncn2C)n1 [Compound 3c]	> 50	> 50	48.6 (≈ 144 µM)	> 50	
C=CCSc1nc(Sc2c([N+](=O)[O-])ncn2C)nc2ncn(C)c12 [Compound 2b]	33.3 (≈ 91.5 µM)	35.3 (≈ 97.2 µM)	49.6 (≈ 136 µM)	> 50	Activity against SNB-19 cell line (in words) [1]: more active than azathioprine; Activity against C-32 cell line (in words) [2]: more active than azathioprine
COc1nc(Sc2c([N+](=O)[O-])ncn2C)c2c(ncn2C)n1 [Compound 3b]	> 50	> 50	> 50	> 50	
Cn1cnc([N+](=O)[O-])c1Sc1nc(Cl)c2c(ncn2C)n1 [Compound 2a]	17.9 (≈ 55 µM)	21.8 (≈ 66.8 µM)	41.1 (≈ 126 µM)	> 50	Activity against SNB-19 cell line (in words) [1]: more active than azathioprine; Activity against C-32 cell line (in words) [2]: more active than azathioprine
Cn1cnc([N+](=O)[O-])c1Sc1nc(Cl)nc2ncn(C)c12 [Compound 3a]	30.4 (≈ 93.3 µM)	12.8 (≈ 39.3 µM)	> 50	34.9 (≈ 107 µM)	Activity against SNB-19 cell line (in words) [1]: more active than azathioprine; Activity against C-32 cell line (in words) [2]: more active than azathioprine; also recorded: good activity

Further lines, with some results ahead:

EC50 [1] [µg/mL]	EC50 ([2]; 72 h exposure, WST-1) [µg/mL]	EC50 ([3]; 72 h exposure, WST-1) [µg/mL]	Structure (SMILES)	EC50 [4, 5] [µg/mL]	further results
28.8 (≈ 96 µM)	22.5 (≈ 74.9 µM)	41.3 (≈ 138 µM)	CCN(CC)CCSc1nc(Cl)nc2ncn(C)c12 [Compound 4a]	> 50	
> 50	> 50	> 50	Cn1cnc2nc(S(N)(=O)=O)nc(S(N)(=O)=O)c21 [Compound 8d, 7-Methyl-2,6-purinedisulfonamide]	> 50	
35 (≈ 144 µM)	> 50	> 50	COc1nc(S(N)(=O)=O)c2c(ncn2C)n1 [Compound 8b, 2-Methoxy-7-methyl-6-purinesulfonamide]	> 50	
30.9 (≈ 130 µM)	35.4 (≈ 148 µM)	44.3 (≈ 186 µM)	C#CCSc1nc(Cl)nc2ncn(C)c12 [Compound 5a, 2-chloro-6-(prop-2-ynylthio)-7-methylpurine]	49 (≈ 205 µM)	melting point: 183 to 184 °C
> 50	> 50	> 50	Cn1cnc2nc(Cl)nc(S(N)(=O)=O)c21 [Compound 8a, 2-Chloro-7-methyl-6-purinesulfonamide]	> 50	
> 50	> 50	> 50	Cn1cnc2nc(Cl)nc(SN)c21 [Compound 10a, 2-Chloro-7-methyl-6-purinesulfenamide]	> 50	
< 10	33.5 (≈ 84.6 µM)	24 (≈ 60.5 µM)	CCN(CC)CCSc1nc(SCCN(CC)CC)c2c(ncn2C)n1 [Compound 4c]	40 (≈ 101 µM)	Antiproliferative activity EC50 SBN-19 [1]: 9.82 µg/mL
5 (≈ 15.5 µM)	7.58 (≈ 23.6 µM)	46 (≈ 143 µM)	Cn1cnc2nc(Cl)nc(SCC#CCN3CCCC3)c21 [Compound 5b, 2-chloro-6-(4-N-pyrrolidinylbut-2-ynylthio)-7-methylpurine]	43.1 (≈ 134 µM)	Activity against T47D cell line (in words) [3]: weak active; Toxicity against normal fibroblasts HFF-1 (in words) ([4]; HFF-1 cells): weak active; melting point: 129 to 130 °C
> 50	> 50	> 50	Cn1cnc2nc(SCCN3CCOCC3)nc(SCCN3CCOCC3)c21 [Compound 4g]	> 50	
< 10	> 50	> 50	CN(C)CCCSc1nc(Cl)nc2ncn(C)c12 [Compound 4b]	> 50	Antiproliferative activity EC50 SBN-19 [1]: 8.45 µg/mL
< 10	27.1 (≈ 68.9 µM)	38.4 (≈ 97.8 µM)	Cn1cnc2nc(SCCN3CCCC3)nc(SCCN3CCCC3)c21 [Compound 4e]	35.4 (≈ 90.2 µM)	Antiproliferative activity EC50 SBN-19 [1]: 7.95 µg/mL
> 50	> 50	> 50	CSc1nc(S(N)(=O)=O)c2c(ncn2C)n1 [Compound 8c, 2-Methylthio-7-methyl-6-purinesulfonamide]	> 50	
< 10	21.8 (≈ 51.8 µM)	32.2 (≈ 76.7 µM)	Cn1cnc2nc(SCCN3CCCCC3)nc(SCCN3CCCCC3)c21 [Compound 4f]	45.5 (≈ 108 µM)	Antiproliferative activity EC50 SBN-19 [1]: 9.18 µg/mL
36.3 (≈ 98.4 µM)	> 50	> 50	CN(C)CCCSc1nc(SCCCN(C)C)c2c(ncn2C)n1 [Compound 4d]	> 50	
